The test system of the test is human mixed lymphocyte reaction (MLR). Briefly: human mixed lymphocyte reaction (MLR), serum free variation. The test is classed as cell-based. To be noted: serum-free medium AIM V, Table 3. In short, it runs like this: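 Serum-free variant of the human MLR: cultured in AIM V medium in place of RPMI 1640 with 10% heat-inactivated FBS. Responder and stimulator PBMCs, pooled from four donors, at final 5×10^5/mL and 2×10^6/mL respectively.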

In the case of `C=CCS[C@H]1CC[C@@H](/C=C(\C)[C@H]2OC(=O)[C@@H]3CCCCN3C(=O)C(=O)[C@]3(O)O[C@H]([C@@H](OC)C[C@@H](C)C/C(C)=C/[C@@H](CC)C(=O)C[C@H](O)[C@H]2C)[C@@H](OC)C[C@H]3C)C[C@H]1OC` [Example 79], under “Homo sapiens, Lymphocyte”, the midpoint of inhibition, the IC50, lay at 14 nM.
On the same count and under the same terms, with `CC[C@@H]1/C=C(\C)C[C@H](C)C[C@H](OC)[C@H]2O[C@@](O)(C(=O)C(=O)N3CCCC[C@H]3C(=O)O[C@H](/C(C)=C/[C@@H]3CC[C@H](SCC(C)=O)[C@H](OC)C3)[C@H](C)[C@@H](O)CC1=O)[C@H](C)C[C@@H]2OC` [Example 80] the figure was 4.3 nM; with `CC[C@@H]1/C=C(\C)C[C@H](C)C[C@H](OC)[C@H]2O[C@@](O)(C(=O)C(=O)N3CCCC[C@H]3C(=O)O[C@H](/C(C)=C/[C@@H]3CC[C@H](SCC(C)=NNC(N)=O)[C@H](OC)C3)[C@H](C)[C@@H](O)CC1=O)[C@H](C)C[C@@H]2OC` [Example 81A], 1.3 nM.
In turn, `CC[C@@H]1/C=C(\C)C[C@H](C)C[C@H](OC)[C@H]2O[C@@](O)(C(=O)C(=O)N3CCCC[C@H]3C(=O)O[C@H](/C(C)=C/[C@@H]3CC[C@H](SCC(C)=NNC(N)=O)[C@H](OC)C3)[C@H](C)[C@@H](O)CC1=O)[C@H](C)C[C@@H]2OC` [Example 81B] yielded a concentration for half-maximal inhibition (IC50) of 1.6 nM.
In the case of `CC[C@@H]1/C=C(\C)C[C@H](C)C[C@H](OC)[C@H]2O[C@@](O)(C(=O)C(=O)N3CCCC[C@H]3C(=O)O[C@H](/C(C)=C/[C@@H]3CC[C@H](SCC(C)=NOC)[C@H](OC)C3)[C@H](C)[C@@H](O)CC1=O)[C@H](C)C[C@@H]2OC` [Example 82], half-maximal inhibition (Homo sapiens, Lymphocyte) (IC50) was put at 64 nM.
On the same count and under the same terms, to `CC[C@@H]1/C=C(\C)C[C@H](C)C[C@H](OC)[C@H]2O[C@@](O)(C(=O)C(=O)N3CCCC[C@H]3C(=O)O[C@H](/C(C)=C/[C@@H]3CC[C@H](SCC(C)=NO)[C@H](OC)C3)[C@H](C)[C@@H](O)CC1=O)[C@H](C)C[C@@H]2OC` [Example 83A] belongs 70 nM.
Regarding `CC[C@@H]1/C=C(\C)C[C@H](C)C[C@H](OC)[C@H]2O[C@@](O)(C(=O)C(=O)N3CCCC[C@H]3C(=O)O[C@H](/C(C)=C/[C@@H]3CC[C@H](SCC(C)=NO)[C@H](OC)C3)[C@H](C)[C@@H](O)CC1=O)[C@H](C)C[C@@H]2OC` [Example 83B], the IC50 worked out at 67 nM.
For the compound `CC[C@@H]1/C=C(\C)C[C@H](C)C[C@H](OC)[C@H]2O[C@@](O)(C(=O)C(=O)N3CCCC[C@H]3C(=O)O[C@H](/C(C)=C/[C@@H]3CC[C@H](SC(=O)C(C)(C)C)[C@H](OC)C3)[C@H](C)[C@@H](O)CC1=O)[C@H](C)C[C@@H]2OC` [Example 85], inhibition (Homo sapiens, Lymphocyte) was half-maximal at 0.48 nM (IC50).
`CC[C@@H]1/C=C(\C)C[C@H](C)C[C@H](OC)[C@H]2O[C@@](O)(C(=O)C(=O)N3CCCC[C@H]3C(=O)O[C@H](/C(C)=C/[C@@H]3CC[C@H](SC(=O)C(C)C)[C@H](OC)C3)[C@H](C)[C@@H](O)CC1=O)[C@H](C)C[C@@H]2OC` [Example 86] displayed an IC50 (Homo sapiens, Lymphocyte) of 1.7 nM.
On the same count and under the same terms, to `CCC(=O)S[C@H]1CC[C@@H](/C=C(\C)[C@H]2OC(=O)[C@@H]3CCCCN3C(=O)C(=O)[C@]3(O)O[C@H]([C@@H](OC)C[C@@H](C)C/C(C)=C/[C@@H](CC)C(=O)C[C@H](O)[C@H]2C)[C@@H](OC)C[C@H]3C)C[C@H]1OC` [Example 88] belongs 0.61 nM.
On the same count and under the same terms, to `CCNC(=O)S[C@H]1CC[C@@H](/C=C(\C)[C@H]2OC(=O)[C@@H]3CCCCN3C(=O)C(=O)[C@]3(O)O[C@H]([C@@H](OC)C[C@@H](C)C/C(C)=C/[C@@H](CC)C(=O)C[C@H](O)[C@H]2C)[C@@H](OC)C[C@H]3C)C[C@H]1OC` [Example 91] belongs 0.09 nM.
On the same count and under the same terms, to `CCCNC(=O)S[C@H]1CC[C@@H](/C=C(\C)[C@H]2OC(=O)[C@@H]3CCCCN3C(=O)C(=O)[C@]3(O)O[C@H]([C@@H](OC)C[C@@H](C)C/C(C)=C/[C@@H](CC)C(=O)C[C@H](O)[C@H]2C)[C@@H](OC)C[C@H]3C)C[C@H]1OC` [Example 92] belongs 0.26 nM; to `CC[C@@H]1/C=C(\C)C[C@H](C)C[C@H](OC)[C@H]2O[C@@](O)(C(=O)C(=O)N3CCCC[C@H]3C(=O)O[C@H](/C(C)=C/[C@@H]3CC[C@H](SC(=O)NC(C)C)[C@H](OC)C3)[C@H](C)[C@@H](O)CC1=O)[C@H](C)C[C@@H]2OC` [Example 93], 0.3 nM.
Where the note is “Homo sapiens, Lymphocyte”, `CC[C@@H]1/C=C(\C)C[C@H](C)C[C@H](OC)[C@H]2O[C@@](O)(C(=O)C(=O)N3CCCC[C@H]3C(=O)O[C@H](/C(C)=C/[C@@H]3CC[C@H](SC(=O)Nc4ccccc4)[C@H](OC)C3)[C@H](C)[C@@H](O)CC1=O)[C@H](C)C[C@@H]2OC` [Example 94] yielded an IC50 of 1.9 nM.
On the same count and under the same terms, with `CCOC(=O)CNC(=O)S[C@H]1CC[C@@H](/C=C(\C)[C@H]2OC(=O)[C@@H]3CCCCN3C(=O)C(=O)[C@]3(O)O[C@H]([C@@H](OC)C[C@@H](C)C/C(C)=C/[C@@H](CC)C(=O)C[C@H](O)[C@H]2C)[C@@H](OC)C[C@H]3C)C[C@H]1OC` [Example 95] the figure was 10.9 nM; with `CC[C@@H]1/C=C(\C)C[C@H](C)C[C@H](OC)[C@H]2O[C@@](O)(C(=O)C(=O)N3CCCC[C@H]3C(=O)O[C@H](/C(C)=C/[C@@H]3CC[C@H](SC(=O)N(C)C)[C@H](OC)C3)[C@H](C)[C@@H](O)CC1=O)[C@H](C)C[C@@H]2OC` [Example 96], 0.1 nM; with `CC[C@@H]1/C=C(\C)C[C@H](C)C[C@H](OC)[C@H]2O[C@@](O)(C(=O)C(=O)N3CCCC[C@H]3C(=O)O[C@H](/C(C)=C/[C@@H]3CC[C@H](SC(=O)N(CC)CC)[C@H](OC)C3)[C@H](C)[C@@H](O)CC1=O)[C@H](C)C[C@@H]2OC` [Example 97], 0.5 nM.
Still for that read-out and setting: to `CC[C@@H]1/C=C(\C)C[C@H](C)C[C@H](OC)[C@H]2O[C@@](O)(C(=O)C(=O)N3CCCC[C@H]3C(=O)O[C@H](/C(C)=C/[C@@H]3CC[C@H](SC(=O)N4CCOCC4)[C@H](OC)C3)[C@H](C)[C@@H](O)CC1=O)[C@H](C)C[C@@H]2OC` [Example 98] belongs 0.2 nM; to `CC[C@@H]1/C=C(\C)C[C@H](C)C[C@H](OC)[C@H]2O[C@@](O)(C(=O)C(=O)N3CCCC[C@H]3C(=O)O[C@H](/C(C)=C/[C@@H]3CC[C@H](SC(=O)NCC(=O)OCc4ccc(OC)cc4)[C@H](OC)C3)[C@H](C)[C@@H](O)CC1=O)[C@H](C)C[C@@H]2OC` [Example 99], 8.7 nM.
`CC[C@@H]1/C=C(\C)C[C@H](C)C[C@H](OC)[C@H]2O[C@@](O)(C(=O)C(=O)N3CCCC[C@H]3C(=O)O[C@H](/C(C)=C/[C@@H]3CC[C@H](SC(=O)NCC(=O)OCC[Si](C)(C)C)[C@H](OC)C3)[C@H](C)[C@@H](O)CC1=O)[C@H](C)C[C@@H]2OC` [Example 100] displayed an IC50 (Lymphocyte) of 5.8 nM.
Compound `CC[C@@H]1/C=C(\C)C[C@H](C)C[C@H](OC)[C@H]2O[C@@](O)(C(=O)C(=O)N3CCCC[C@H]3C(=O)O[C@H](/C(C)=C/[C@@H]3CC[C@H](SC(=O)NCC(=O)N4CCOCC4)[C@H](OC)C3)[C@H](C)[C@@H](O)CC1=O)[C@H](C)C[C@@H]2OC` [Example 101] yielded an IC50 (Homo sapiens, Lymphocyte) of 1.1 nM.
As for `CC[C@@H]1/C=C(\C)C[C@H](C)C[C@H](OC)[C@H]2O[C@@](O)(C(=O)C(=O)N3CCCC[C@H]3C(=O)O[C@H](/C(C)=C/[C@@H]3CC[C@H](SC(=O)NCC(=O)N4CCCCC4)[C@H](OC)C3)[C@H](C)[C@@H](O)CC1=O)[C@H](C)C[C@@H]2OC` [Example 102], half-maximal inhibition (Homo sapiens, Lymphocyte) (IC50) was put at 2 nM.
`CCOC(CNC(=O)S[C@H]1CC[C@@H](/C=C(\C)[C@H]2OC(=O)[C@@H]3CCCCN3C(=O)C(=O)[C@]3(O)O[C@H]([C@@H](OC)C[C@@H](C)C/C(C)=C/[C@@H](CC)C(=O)C[C@H](O)[C@H]2C)[C@@H](OC)C[C@H]3C)C[C@H]1OC)OCC` [Example 104] displayed an IC50 (Homo sapiens, Lymphocyte) of 2.5 nM.

For the origin of these results see patent publication US5604234A, “Substituted thiol macrolactam immunomodulators” (Abbott Laboratories, priority 1995, dated 1997).
